Experimental data reported in patent US20220023282A1 (priority 2018, published 2022).
Values after ≈ are worked out from the molar mass of the structure shown.

How the values were obtained:
M. avium [1] = conditions: cited from earlier work
M. fortuitum = conditions: cited from earlier work
[2] = human, in vivo, 400 mg; cited from earlier work
M. scrofulaceum = conditions: cited from earlier work
M. vaccae = conditions: cited from earlier work
M. ulcerans = conditions: cited from earlier work
M. avium [3] = conditions: cited from earlier work; remark: listed apart in the source
M. abscessus [4] = conditions: cited from earlier work
[5] = test system: Mycobacterium tuberculosis H37Rv; conditions: standardized broth-dilution assay; cited from earlier work
Calu-3 = assay: Cell viability (MTT) of pulmonary epithelial cells; assay type: cell-based
Procedure: (§1) MTT is the tetrazolium dye 3-(4,5-dimethylthiazol-2-yl)-2,5-diphenyltetrazolium bromide which is converted by mitochondrial reductase to its insoluble formazan. In living cells, the insoluble formazan can be dissolved by adding the detergent dimethylsulfoxide for 15 minutes. The absorption of the respective dye is measured by a plate-reader at 590 nm. For the calculation of the viability after the incubation of the test compounds a positive and a negative control is included. Hank's balanced salt solution (HBSS) is used as a negative control and the resulting absorbance value is set to 100% viability. The positive control (1% Triton-X-100) is used to set 0% viability. Accordingly, the IC50 value of the test formulation can be determined by measuring a dose-response curve in log-scale.
(§2) These formulations (designated as 100%) were diluted with HBSS to give the following formulations for testing:
(§3) Cells were treated with the test formulations for 4 hours at 37° C. The viability of the cells after exposure was used to set up a dose-response curve in logarithmic scale. A sigmoidal fit enables the IC20, IC50, and IC80 calculations of the test substances.

M. qordonae = conditions: cited from earlier work
M. chelonae = conditions: cited from earlier work
M. simiae = conditions: cited from earlier work
[6] = in vivo, cited from earlier work
M. abscessus [7] = conditions: cited from earlier work; remark: listed apart in the source
MOR M. tuberculosis = conditions: cited from earlier work
M. malmoense = conditions: cited from earlier work
M. phlei = conditions: cited from earlier work
A549 = assay: Cell viability (MTT) of pulmonary epithelial cells; assay type: cell-based
Procedure: as §1, §2, §3

[8] = test system: Drug-susceptible M. tuberculosis; conditions: cited from earlier work
M. kansasii = conditions: cited from earlier work
M. smeqmatis mc2 155 = conditions: cited from earlier work
M. maqeritense = conditions: cited from earlier work
M. hiberniae = conditions: cited from earlier work
M. marinum = conditions: cited from earlier work

## COc1nc2ccc(Br)cc2cc1[C@@H](c1ccccc1)[C@@](O)(CCN(C)C)c1cccc2ccccc12 [bedaquiline, (1R,2S)-1-(6-bromo-2-methoxyquinolin-3-yl)-4-(dimethylamino)-2-(naphthalen-1-yl)-1-phenylbutan-2-ol]
M. avium [1]
  MIC: 0.03 to 0.13 µg/mL
M. fortuitum
  MIC: 0.13 to 0.25 µg/mL
[2]
  Cmax in the sputum: 5000 ng/mL
M. scrofulaceum
  MIC: 0.03 µg/mL (≈ 0.054 µM)
M. vaccae
  MIC: 0.03 µg/mL (≈ 0.054 µM)
M. ulcerans
  MIC: 0.5 µg/mL (≈ 0.9 µM)
M. avium [3]
  MIC99: 0.01 to 0.03 µg/mL
M. abscessus [4]
  MIC99: 0.25 to 0.5 µg/mL
[5]
  MIC99: 0.015 to 0.12 µg/mL
Calu-3
  cytotoxic effect on cell viability as compared with vehicle: minimal cytotoxic effect
M. qordonae
  MIC: 0.03 µg/mL (≈ 0.054 µM)
M. chelonae
  MIC: 0.06 to 0.5 µg/mL
M. simiae
  MIC: 0.03 µg/mL (≈ 0.054 µM)
[6]; po
  time to maximal plasma concentration after administration: 4 to 6 h
[6]
  effective half-life: 24 h
  half life in tissues: more than 5 months
  terminal half life: 5.5 months
M. abscessus [7]
  MIC: 0.25 µg/mL (≈ 0.45 µM)
MOR M. tuberculosis
  MIC: 0.06 µg/mL (≈ 0.108 µM)
M. malmoense
  MIC: 0.50 µg/mL (≈ 0.9 µM)
M. phlei
  MIC: 0.03 to 0.13 µg/mL
A549
  cytotoxic effect on cell viability as compared with vehicle: minimal cytotoxic effect
[8]
  MIC: 0.06 µg/mL (≈ 0.108 µM)
M. kansasii
  MIC: 0.03 µg/mL (≈ 0.054 µM)
M. smeqmatis mc2 155
  MIC: 0.12 µg/mL (≈ 0.216 µM)
M. maqeritense
  MIC: 0.03 µg/mL (≈ 0.054 µM)
M. hiberniae
  MIC: 0.03 µg/mL (≈ 0.054 µM)
M. marinum
  MIC: 0.003 µg/mL (≈ 0.0054 µM)
